Source: the C3SDB collision cross section collection
Several values for one entry are separate records, joined by “and”; a condition that tells them apart may be missing. Equal entries are not always repeated.

Conditions: instrument: TW, calibrated with polyalanine and drug standards

SMILES	collision cross section (N2) ([M+H]+)	also measured
CC1=C(CCC(=O)O)c2cc3nc(cc4[nH]c(cc5[nH]c(cc1n2)c(C)c5C(C)O)c(C)c4C(C)O)C(C)=C3CCC(=O)O (configuration not stated) [HAEMATOPORPHYRIN]	248.4 Å²	
CC1(C)O[C@@H]2C[C@H]3[C@@H]4CCC5=CC(=O)CC[C@]5(C)[C@@]4(F)[C@@H](O)C[C@]3(C)[C@]2(C(=O)CCl)O1 [HALCINONIDE]	200.9 Å²	
COc1ccc2c(c1)[nH]c1c(C)nccc12 [HARMINE]	144.5 Å²	
COc1ccc([C@@H]2CC(=O)c3c(O)cc(O)cc3O2)cc1O [HESPERETIN]	169.1 Å²	
COc1ccc([C@@H]2CC(=O)c3c(O)cc(O[C@@H]4O[C@H](CO[C@@H]5O[C@@H](C)[C@H](O)[C@@H](O)[C@H]5O)[C@@H](O)[C@H](O)[C@H]4O)cc3O2)cc1O [HESPERIDIN]		collision cross section (N2) ([M+Na]+): 227 Å²
COc1cc(O)c2c(=O)cc(C)oc2c1CC=C(C)C [HETEROPEUCENIN, METHYL ETHER]	161.7 Å²	
COc1ccc(-c2oc3cc(OC)c(OC)c(OC)c3c(=O)c2OC)cc1OC [HEXAMETHYLQUERCETAGETIN]	191.2 Å²	
CCCCCCc1ccc(O)cc1O [HEXYLRESORCINOL]	129 Å²	
C[C@]12CCC(=O)C=C1CC[C@@H]1[C@@H]2[C@@H](O)C[C@@]2(C)[C@H]1CC[C@]2(O)C(=O)COC(=O)CCC(=O)O [HYDROCORTISONE HEMISUCCINATE]	212.4 Å²	
CCCCC(=O)O[C@]1(C(=O)CO)CC[C@H]2[C@@H]3CCC4=CC(=O)CC[C@]4(C)[C@H]3[C@@H](O)C[C@@]21C [HYDROCORTISONE VALERATE]	212.5 Å²	
C[C@]12CCC(=O)C=C1CC[C@@H]1[C@@H]2[C@@H](O)C[C@@]2(C)[C@H]1CC[C@]2(O)C(=O)CO [HYDROCORTISONE]	185.1 Å²	
CC(C)Cc1ccc(C(C)C(=O)O)cc1 (configuration not stated) [IBUPROFEN]	144 Å²	
COc1ccc(-c2oc3c(CC=C(C)C)c(O[C@@H]4O[C@H](CO)[C@@H](O)[C@H](O)[C@H]4O)cc(O)c3c(=O)c2O[C@@H]2O[C@@H](C)[C@H](O)[C@@H](O)[C@H]2O)cc1 [ICARIIN]	260.8 Å²	
O=P1(NCCCl)OCCCN1CCCl (configuration not stated) [IFOSFAMIDE]	147 Å²	
COc1ccc2c(c1)c(CC(=O)O)c(C)n2C(=O)c1ccc(Cl)cc1 [INDOMETHACIN]	179 Å²	
CC(C(=O)O)c1ccc(N2Cc3ccccc3C2=O)cc1 (configuration not stated) [INDOPROFEN]	166.6 Å²	
Oc1c(I)cc(I)c2cccnc12 [IODOQUINOL]	143.7 Å²	
COc1cc(-c2coc3cc(OCc4ccccc4)c(OC)c(O)c3c2=O)cc(O)c1OC [IRIGENIN, 7-BENZYL ETHER]	198.6 Å² and 212.4 Å²	
COc1cc(-c2coc3cc(OCc4ccccc4)c(OC)c(O)c3c2=O)cc(OCc2ccccc2)c1OC [IRIGENIN, DIBENZYL ETHER]	234.1 Å²	
C=C1CCC2C(CC2(C)C)C(=O)CCC1O (configuration not stated) [ISOKOBUSONE]	146 Å²	
CC(C)NCC(O)c1ccc(O)c(O)c1 (configuration not stated) [ISOPROTERENOL]	149.4 Å²	

SMILES	collision cross section (N2) ([M+H]+)	also measured
C/C=C/c1ccc2c(c1)OCO2 [ISOSAFROLE]	138.4 Å²	
CCC(C)n1ncn(-c2ccc(N3CCN(c4ccc(OCC5COC(Cn6cncn6)(c6ccc(Cl)cc6Cl)O5)cc4)CC3)cc2)c1=O (configuration not stated) [ITRACONAZOLE]	248.8 Å²	
O=c1c(O)c(-c2ccc(O)cc2)oc2cc(O)cc(O)c12 [KAEMPFEROL]	159.2 Å²	
COC1=CC(=O)O[C@@H](/C=C/c2ccccc2)C1 [KAWAIN]	149.4 Å²	
CC(C(=O)O)c1cccc(C(=O)c2ccccc2)c1 (configuration not stated) [KETOPROFEN]	157.5 Å²	
O=c1cc(CO)occ1O [KOJIC ACID]	121.9 Å²	
CC(=O)NCCc1ccc(O)c(-c2c(O)c(O)c3c(c2O)C(=O)c2c(cc(O)c(C(=O)O)c2C(=O)O)C3=O)c1 [LACCAIC ACID A]	218.5 Å²	
OC[C@H]1O[C@@H](O[C@@H]2[C@@H](CO)O[C@](O)(CO)[C@H]2O)[C@H](O)[C@@H](O)[C@H]1O [LACTULOSE]	169.2 Å²	
CC(=O)O[C@H]1C[C@H](O[C@H]2[C@@H](O)C[C@H](O[C@H]3[C@@H](O)C[C@H](O[C@H]4CC[C@@]5(C)[C@H](CC[C@@H]6[C@@H]5C[C@@H](O)[C@]5(C)[C@@H](C7=CC(=O)OC7)CC[C@]65O)C4)O[C@@H]3C)O[C@@H]2C)O[C@H](C)[C@H]1O[C@@H]1O[C@H](CO)[C@@H](O)[C@H](O)[C@H]1O [LANATOSIDE C]	289.4 Å²	
CCN1C[C@]2(OC(=O)c3ccccc3NC(C)=O)CC[C@H](OC)C34C1C(C[C@@H]32)[C@@]1(O)C[C@H](OC)[C@H]2C[C@@H]4[C@]1(O)[C@H]2OC [LAPPACONITINE]	232.5 Å²	
C[N+](C)(C)C[C@H](O)CC(=O)[O-] [LEVOCARNITINE]	132.9 Å²	
C[C@H]1COc2c(N3CCN(C)CC3)c(F)cc3c(=O)c(C(=O)O)cn1c23 [LEVOFLOXACIN]	188.5 Å²	
C[C@H](CCC(=O)O)[C@H]1CC[C@H]2[C@@H]3CC[C@@H]4C[C@H](O)CC[C@]4(C)[C@H]3CC[C@]12C [LITHOCHOLIC ACID]	210.8 Å²	
CCCCCc1c2c(cc(O)c1C(=O)O)OC(=O)c1c(cc(OC)cc1C(=O)CCCC)O2 [LOBARIC ACID]	209.7 Å²	
CCOC(=O)Nc1nc2ccccc2[nH]1 [LOBENDAZOLE]	141.7 Å²	
O=C1CC[C@]23/C=C/C(=O)NCCCCNCCCNC(=O)/C=C/c4ccc(c2c4)O[C@@H]3C1 [LUNARINE]	203.4 Å²	
OC[C@@H]1CCCN2CCCC[C@H]12 [LUPININE]	135.3 Å²	
O=c1c2cc(O)c(O)cc2oc2cc(O)c([C@@H]3O[C@H](CO)[C@@H](O)[C@H](O)[C@H]3O)c(O)c12 [MANGIFERIN]	189.8 Å²	
COC(=O)Nc1nc2ccc(C(=O)c3ccccc3)cc2[nH]1 [MEBENDAZOLE]	171.2 Å²	
CC(=O)O[C@]1(C(C)=O)CC[C@H]2[C@@H]3C[C@H](C)C4=CC(=O)CC[C@]4(C)[C@H]3CC[C@@]21C [MEDROXYPROGESTERONE ACETATE]	197.2 Å²	
CC(=O)[C@H]1CC[C@H]2[C@@H]3C[C@H](C)C4=CC(=O)CC[C@]4(C)[C@H]3[C@@H](O)C[C@]12C [MEDRYSONE]	183.2 Å²	

SMILES	collision cross section (N2) ([M+H]+)	also measured
CCN(CC)CCNC(=O)COc1ccc(OC)cc1 [MEFEXAMIDE]	171.2 Å²	
O[C@@H](c1cc(C(F)(F)F)nc2c(C(F)(F)F)cccc12)[C@H]1CCCCN1 [MEFLOQUINE]	181.8 Å²	
CNC[C@H](O)[C@@H](O)[C@H](O)[C@H](O)CO [MEGLUMINE]	139 Å²	
CC1=C2C(O)C(=O)OC3CC4C(C)(C)C(=O)C=C[C@]4(C)C(CC1)[C@]23C (some centres not stated) [MEROGEDUNIN]	179.8 Å²	
Cn1cc[nH]c1=S [METHIMAZOLE]	117.2 Å² and 117.1 Å²	
COC(C)(C)CCC[C@H](C)C/C=C/C(C)=C/C(=O)OC(C)C [METHOPRENE (S)]		collision cross section (N2) ([M+Na]+): 187 Å²
CN(Cc1cnc2nc(N)nc(N)c2n1)c1ccc(C(=O)N[C@@H](CCC(=O)O)C(=O)O)cc1 [METHOTREXATE]	194.8 Å²	
COc1c2occc2cc2ccc(=O)oc12 [METHOXSALEN]	139.9 Å²	
C[C@](N)(Cc1ccc(O)c(O)c1)C(=O)O [METHYLDOPA]	147.6 Å²	
CC[C@H](C)C(=O)O[C@H]1CCC=C2C=C[C@H](C)[C@H](CC[C@@H]3C[C@@H](O)CC(=O)O3)[C@H]21 [MEVASTATIN]		collision cross section (N2) ([M+Na]+): 198.4 Å²
CC1=CC2C(CC1=O)C(C)=CCC2C(C)C (configuration not stated) [MUUROLLADIE-3-ONE]	138.5 Å²	
c1cncc(C2=NCCC2)c1 [MYOSMINE]	128.2 Å²	
NC(N)=NC(=O)c1nc(Cl)c(N2CCCCCC2)nc1N [N,N-HEXAMETHYLENEAMILORIDE]	174.7 Å²	
CCC(C)C(NC)C(=O)O (configuration not stated) [N-METHYLISOLEUCINE]	130.6 Å²	
CN1CCOC(c2ccccc2)c2ccccc2C1 (configuration not stated) [NEFOPAM]	157.1 Å²	
Cc1c(NC(=O)c2cccnc2)c(=O)n(-c2ccccc2)n1C [NIFENAZONE]	172.5 Å²	
COc1ccc(-c2cc(=O)c3c(OC)c(OC)c(OC)c(OC)c3o2)cc1OC [NOBILETIN]	191.3 Å²	
NC[C@H](O)c1ccc(O)c(O)c1 [NOREPINEPHRINE]		collision cross section (N2) ([M+H-H2O]+): 132.6 Å²
CCn1cc(C(=O)O)c(=O)c2cc(F)c(N3CCNCC3)cc21 [NORFLOXACIN]	184.2 Å² and 170 Å²	
C#C[C@]1(OC(C)=O)CC[C@H]2[C@@H]3CCC4=C/C(=N/O)CC[C@@H]4[C@H]3CC[C@@]21CC [NORGESTIMATE]	197.6 Å²	
